PMC12693167, “Design, Synthesis and Anticancer Activity of 6-Substituted-1-(3,4,5-trimethoxyphenyl)-1H-indole Against Tubulin Polymerisation” (Molecules, 2025)

What was measured:
[1] = test system: B16F10 melanoma tumors in BALB/c mice; assay: In vivo antitumor efficacy, subcutaneous B16-F10 melanoma model; set-up: species or system mouse; settings: paclitaxel 10 mg/kg i.p. once daily, 14 days, from tumor weight
Description: The in vivo antitumor activity of compound 3g was evaluated using a mouse melanoma tumor model in BALB/c mice. Tumors were established by subcutaneous inoculation of B16F10 cells, and treatment was initiated when tumors reached a measurable size. Mice were administered vehicle control, paclitaxel (PTX, 10 mg/kg), or compound 3g (20 and 50 mg/kg) via intraperitoneal injection once daily for 14 consecutive days.
All animal procedures were approved by the Animal Ethics Committee of the Naval Medical University (permit number: EC11-055). Male BALB/c mice (6–8 weeks old, average initial body weight approximately 18–20 g) were purchased from Shanghai SLAC Laboratory Animal Co., Ltd. The inhibitory effect of compound 3g was evaluated using a subcutaneous B16-F10 melanoma xenograft model. Log-phase B16F10 cells were suspended in PBS and subcutaneously injected into mice (200 μL containing 8 × 10^5 cells per mouse) to establish tumors. Mice were randomly divided into control and treatment groups (n = 8). Compound 3g and paclitaxel were dissolved in a vehicle consisting of DMSO:PEG:Tween-80:saline (v/v/v/v, 5:35:10:50) to the desired concentrations. Treatments (paclitaxel, 10 mg/kg; compound 3g, 20 and 50 mg/kg, doses calculated on a body-weight basis) and vehicle were administered once daily via intraperitoneal injection for 14 consecutive days. Body weights were monitored throughout the study to assess acute toxicity. Tumor volumes were measured using calipers and calculated with the formula: a × b^2 × 0.5, where a and b represent the larger and smaller tumor diameters, respectively. On day 14, mice were sacrificed and tumors were excised and weighed. […] Major organs (liver and kidneys) were collected, fixed in 4% paraformaldehyde, processed into paraffin sections, stained with hematoxylin and eosin (H&E), and examined microscopically.
Murine melanoma B16-F10 xenograft tumors were established in mice, which were then administered vehicle, PTX (10 mg/kg per day), compound 3g (20 mg/kg per day), and compound 3g (50 mg/kg per day) for 14 days. […]

[2] = target: T1, Porcine brain tubulin protein (Sus scrofa, UniProt P02554); assay: In vitro tubulin polymerization assay; assay type: biochemical; settings: 10 μM
T1 construct: Porcine brain tubulin protein was dissolved in EM buffer; from tissue; host or cells: porcine brain
T1 sequence (P02554 whole entry): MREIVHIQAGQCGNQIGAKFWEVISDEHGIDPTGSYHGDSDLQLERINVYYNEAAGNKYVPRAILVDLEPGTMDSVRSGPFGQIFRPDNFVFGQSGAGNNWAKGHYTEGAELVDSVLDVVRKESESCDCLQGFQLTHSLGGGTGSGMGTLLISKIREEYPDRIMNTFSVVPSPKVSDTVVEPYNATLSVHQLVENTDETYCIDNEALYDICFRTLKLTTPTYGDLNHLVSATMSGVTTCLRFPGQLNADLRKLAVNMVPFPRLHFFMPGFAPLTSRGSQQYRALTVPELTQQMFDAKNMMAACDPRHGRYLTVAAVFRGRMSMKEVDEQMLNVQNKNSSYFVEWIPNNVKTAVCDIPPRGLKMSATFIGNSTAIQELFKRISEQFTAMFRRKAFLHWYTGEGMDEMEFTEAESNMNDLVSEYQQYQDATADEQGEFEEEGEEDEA
T1 sequence (P02550 whole entry partner): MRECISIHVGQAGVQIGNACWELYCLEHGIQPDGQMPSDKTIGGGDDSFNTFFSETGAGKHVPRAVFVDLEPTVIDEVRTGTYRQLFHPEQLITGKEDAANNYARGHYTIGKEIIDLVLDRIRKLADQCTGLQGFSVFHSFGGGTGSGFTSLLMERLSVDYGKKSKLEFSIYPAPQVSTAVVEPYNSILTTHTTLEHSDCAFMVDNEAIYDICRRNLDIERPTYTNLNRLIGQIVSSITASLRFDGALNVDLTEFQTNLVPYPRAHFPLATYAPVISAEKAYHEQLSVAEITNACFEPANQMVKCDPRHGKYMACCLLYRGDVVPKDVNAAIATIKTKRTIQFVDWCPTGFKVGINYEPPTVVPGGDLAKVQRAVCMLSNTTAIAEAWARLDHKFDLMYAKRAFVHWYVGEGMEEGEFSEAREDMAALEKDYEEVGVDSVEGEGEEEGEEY
Description: The ability of compound 3g to disrupt microtubule dynamics was assessed using an in vitro tubulin polymerization assay.
Porcine brain tubulin protein was dissolved in EM buffer containing 5% glycerol (80 mM PIPES, 2 mM GTP, 2 mM MgCl2, and 0.5 mM EGTA, pH 6.9). Compounds were diluted in EM buffer to final concentrations of 50, 25, 10, 5, and 2.5 μM and added to a pre-warmed 384-well plate, followed by pre-incubation at 37 °C. Subsequently, 14 μL of the tubulin-GTP mixture was added to each well containing the test compounds. Tubulin polymerization was monitored by measuring absorbance at 340 nm every minute for 60 min. […] Each assay was performed in triplicate.
Absorbance at 340 nm was determined every 1 min.

effect on tubulin polymerization (positive controls) [2]: stabilizing
SMILES: CC(=O)O[C@H]1C(=O)[C@@]2(C)[C@H]([C@H](OC(=O)c3ccccc3)[C@]3(O)C[C@H](OC(=O)[C@H](O)[C@@H](NC(=O)c4ccccc4)c4ccccc4)C(C)=C1C3(C)C)[C@]1(OC(C)=O)CO[C@@H]1C[C@@H]2O [paclitaxel, reference compound]
tumor growth inhibition (TGI) [1]: 59.84%
